Experiments:
[1] = Pharmacokinetic profiles in rats; format: in vivo, rat; conditions: for Cl/F / AUC(0-t) / half-life / Vd: iv dosing 1 mg/kg; for F: oral vs iv (iv 1 mg/kg; p.o. generally 5 or 10 mg/kg); for AUC(0-t) / half-life / Vd: rat, plasma; for Vd: read-out: Vss
Procedure, shortened: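 In rats, dogs and monkeys, IV dose was generally 1 or 2 mg/kg. Oral dose was generally 5 or 10 mg/kg in rats and 10 mg/kg in dogs and monkeys, given as solution, suspension or capsule. Plasma sampled over up to 24 h and analysed by LC/MS/MS.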

[2] = target: PI3K (p110δ/p85α) (h) (Homo sapiens (Human), UniProt O00329); experiment: PI3K (p110δ/p85α) (h) non-radioactive HTRF kinase assay; format: biochemical; conditions: performed at Millipore UK Ltd
PI3K (p110δ/p85α) (h), sequence (O00329 whole entry): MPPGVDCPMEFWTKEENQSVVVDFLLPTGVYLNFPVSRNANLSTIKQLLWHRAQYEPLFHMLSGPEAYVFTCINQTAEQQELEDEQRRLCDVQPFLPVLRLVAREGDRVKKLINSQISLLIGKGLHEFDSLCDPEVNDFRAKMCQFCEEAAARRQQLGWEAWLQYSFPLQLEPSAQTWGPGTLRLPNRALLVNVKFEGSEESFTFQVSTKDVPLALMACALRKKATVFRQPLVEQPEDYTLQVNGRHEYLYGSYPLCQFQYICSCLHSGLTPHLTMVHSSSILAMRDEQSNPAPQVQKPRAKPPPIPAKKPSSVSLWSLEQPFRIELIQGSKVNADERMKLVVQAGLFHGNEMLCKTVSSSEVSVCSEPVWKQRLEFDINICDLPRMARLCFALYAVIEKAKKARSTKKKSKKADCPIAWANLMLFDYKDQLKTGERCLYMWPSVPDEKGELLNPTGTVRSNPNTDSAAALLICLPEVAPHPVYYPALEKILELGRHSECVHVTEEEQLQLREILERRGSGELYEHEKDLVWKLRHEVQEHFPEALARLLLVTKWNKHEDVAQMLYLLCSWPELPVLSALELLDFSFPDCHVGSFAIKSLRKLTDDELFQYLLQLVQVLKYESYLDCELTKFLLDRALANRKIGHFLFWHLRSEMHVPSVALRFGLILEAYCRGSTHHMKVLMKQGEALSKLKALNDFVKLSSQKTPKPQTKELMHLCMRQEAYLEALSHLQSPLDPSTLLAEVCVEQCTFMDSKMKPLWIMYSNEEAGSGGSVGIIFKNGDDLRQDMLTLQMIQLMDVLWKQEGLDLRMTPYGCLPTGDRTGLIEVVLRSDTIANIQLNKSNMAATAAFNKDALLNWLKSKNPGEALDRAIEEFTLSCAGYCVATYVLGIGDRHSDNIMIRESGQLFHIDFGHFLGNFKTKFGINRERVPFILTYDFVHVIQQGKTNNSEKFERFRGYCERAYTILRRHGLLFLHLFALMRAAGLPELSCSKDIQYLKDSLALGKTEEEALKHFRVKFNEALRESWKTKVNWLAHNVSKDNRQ
PI3K (p110δ/p85α) (h), sequence (P27986 whole entry partner): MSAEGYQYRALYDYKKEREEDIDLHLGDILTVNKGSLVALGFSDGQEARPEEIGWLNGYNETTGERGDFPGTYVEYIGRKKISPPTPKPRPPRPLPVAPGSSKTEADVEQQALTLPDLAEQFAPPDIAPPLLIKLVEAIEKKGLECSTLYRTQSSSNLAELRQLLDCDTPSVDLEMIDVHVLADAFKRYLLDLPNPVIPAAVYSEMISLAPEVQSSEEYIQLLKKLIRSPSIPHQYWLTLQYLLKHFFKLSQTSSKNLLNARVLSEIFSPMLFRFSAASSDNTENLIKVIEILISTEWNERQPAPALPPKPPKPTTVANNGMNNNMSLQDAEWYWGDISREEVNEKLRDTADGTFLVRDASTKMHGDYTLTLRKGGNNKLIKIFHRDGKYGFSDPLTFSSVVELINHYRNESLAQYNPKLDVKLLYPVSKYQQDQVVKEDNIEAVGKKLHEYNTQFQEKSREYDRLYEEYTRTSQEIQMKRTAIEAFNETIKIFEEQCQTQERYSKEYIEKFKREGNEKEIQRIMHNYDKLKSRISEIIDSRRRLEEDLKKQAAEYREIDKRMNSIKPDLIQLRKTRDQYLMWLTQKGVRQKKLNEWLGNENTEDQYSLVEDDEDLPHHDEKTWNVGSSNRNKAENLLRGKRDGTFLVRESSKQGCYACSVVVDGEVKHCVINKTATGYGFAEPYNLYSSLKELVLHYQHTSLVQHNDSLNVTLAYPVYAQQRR
Method: The above assay procedure can be used to determine the IC50 for inhibition and/or the inhibition constant, Ki.
PI3K (p110δ/p85α) (h) [Non-Radioactive Assay]
PI3K (p110δ/p85α) (h) is incubated in assay buffer containing 10 μM phosphatidylinositol-4, 5-bisphosphate and MgATP (concentration as required). The reaction is initiated by the addition of the MgATP mix. After incubation for 30 minutes at room temperature, the reaction is stopped by the addition of stop solution containing EDTA and biotinylated phosphatidylinositol-3,4,5-trisphosphate. Finally, detection buffer is added, which contains europium-labelled anti-GST monoclonal antibody, GST-tagged GRP1 PH domain and streptavidin-allophycocyanin. The plate is then read in timeresolved fluorescence mode and the homogenous time-resolved fluorescence (HTRF) signal is determined according to the formula HTRF=10000×(Em665 nm/Em620 nm).
The kinase assays described herein were performed at Millipore UK Ltd, Dundee Technology Park, Dundee DD2 1SW, UK.

[3] = Pharmacokinetic profiles in dogs; format: in vivo; conditions: Dog; for clearance / AUC(0-t) / half-life / Vd: iv dosing 1 mg/kg; for F: oral vs iv (iv 1 mg/kg; p.o. generally 10 mg/kg); for AUC(0-t) / half-life / Vd: plasma; for Vd: read-out: Vss
Method: (§1) The compounds disclosed herein are assessed in pharmacokinetic studies in mice, rats, dogs or monkeys. The compounds are administered as a water solution, 2% HPMC+1% TWEEN®80 in water solution, 5% DMSO+5% solutol in saline, 4% MC suspension or capsule. For the intravenous administration, the animals are generally given at 1 or 2 mg/kg dose. For the oral (p.o.) dosing, mice and rats are generally given 5 or 10 mg/kg dose, and dogs and monkeys are generally given 10 mg/kg dose. The blood samples (0.3 mL) are drawn at 0.25, 0.5, 1.0, 2.0, 3.0, 4.0, 6.0, 8.0, 12 and 24 h time points or 0.083, 0.25, 0.5, 1.0, 2.0, 4.0, 6.0, 8.0 and 24 h time points and centrifuged at 3,000 or 4000 rpm for 2 to 10 min. The plasma solutions are collected, stored at −20° C. or −70° C. until analyzed by LC/MS/MS as described above.

[4] = Pharmacokinetic profiles in monkeys; format: in vivo; conditions: Monkey; for Cl/F / AUC(0-t) / half-life / Vd: iv dosing 1 mg/kg; for F: oral vs iv (iv 1 mg/kg; p.o. generally 10 mg/kg); for AUC(0-t) / half-life / Vd: plasma; for Vd: read-out: Vss
Method: as §1

Compound	Cl/F [1]	F [1]	AUC(0-t) [1]	half-life [1]	Vd [1]	IC50 [2]	clearance [3]	F [3]	AUC(0-t) [3]	half-life [3]	Vd [3]	Cl/F [4]	F [4]	AUC(0-t) [4]	half-life [4]	Vd [4]
Cc1nnc(-c2c(N)ncnc2N[C@@H](C)c2cc3cccc(Cl)c3c(=O)n2C2CC2)o1 [Ex. 4, (S)-3-(1-((6-amino-5-(5-methyl-1,3,4-oxadiazol-2-yl)pyrimidin-4-yl)amino)ethyl)-8-chloro-2-cyclopropylisoquinolin-1(2H)-one]	33.3 mL/min/kg	78.78%	498 ng·h/mL	0.98 h	2.4 L/kg	11 nM										
Cc1nnc(-c2c(N)ncnc2N[C@@H](C)c2cc3cccc(-c4cnn(C)c4)c3c(=O)n2C2CC2)o1 [Ex. 25, (S)-3-(1-((6-amino-5-(5-methyl-1,3,4-oxadiazol-2-yl)pyrimidin-4-yl)amino)ethyl)-2-cyclopropyl-8-(1-methyl-1H-pyrazol-4-yl)isoquinolin-1 (2H)-one]	33.3 mL/min/kg	81.0%	497 ng·h/mL	1.32 h	3.31 L/kg	13 nM										
Cc1noc(-c2c(N)ncnc2N[C@@H](C)c2cc3cccc(-c4cnn(C)c4)c3c(=O)n2C2CC2)n1 [Ex. 26, (S)-3-(1-((6-amino-5-(3-methyl-1,2,4-oxadiazol-5-yl)pyrimidin-4-yl)amino)ethyl)-2-cyclopropyl-8-(1-methyl-1H-pyrazol-4-yl)isoquinolin-1 (2H)-one]	50.3 mL/min/kg	121.0%	337 ng·h/mL	0.84 h	3.14 L/kg	4 nM										

Further compounds by falling IC50 [2], results first:

Cl/F [1]	F [1]	AUC(0-t) [1]	half-life [1]	Vd [1]	IC50 [2]	clearance [3]	F [3]	AUC(0-t) [3]	half-life [3]	Vd [3]	Cl/F [4]	F [4]	AUC(0-t) [4]	half-life [4]	Vd [4]	Compound
17.3 mL/min/kg	66.87%	964 ng·h/mL	1.38 h	1.04 L/kg	4 nM	23.7 mL/min/kg	72.99%	695 ng·h/mL	1.25 h	2.04 L/kg	14.8 mL/min/kg	179.7%	1120 ng·h/mL	1.23 h	1.17 L/kg	Cc1nnc(-c2c(N)ncnc2N[C@@H](C)c2cc3cccc(Cl)c3c(=O)n2-c2ccccc2)o1 [Ex. 9, (S)-3-(1-((6-amino-5-(5-methyl-1,3,4-oxadiazol-2-yl)pyrimidin-4-yl)amino)ethyl)-8-chloro-2-phenylisoquinolin-1(2H)-one]
57.8 mL/min/kg	93.06%	291 ng·h/mL	0.92 h	1.94 L/kg	1 nM	12.2 mL/min/kg	52.85%	1350 ng·h/mL	1.7 h	1.43 L/kg	24.3 mL/min/kg	13.1%	711 ng·h/mL	0.65 h	1.2 L/kg	Cc1noc(-c2c(N)ncnc2N[C@@H](C)c2cc3cccc(Cl)c3c(=O)n2-c2ccccc2)n1 [Ex. 8, (S)-3-(1-((6-amino-5-(3-methyl-1,2,4-oxadiazol-5-yl)pyrimidin-4-yl)amino)ethyl)-8-chloro-2-phenylisoquinolin-1(2H)-one]

Reference: patent publication US9512114B2, “Substituted aminopyrimidine compounds and methods of use” (Calitor Sciences, LLC, priority 2013, dated 2016)
